Molecules are shown by their SMILES. Values joined by “and” are separate entries in the source; they are usually repeats but may differ in a detail not shown here. Identical values can stand only once. Like-named read-outs stand apart in the source and are kept apart here.

Consider three compounds from patent US20160143926A1, “COMPOSITIONS AND METHODS FOR THE PREPARATION OF KIDNEY PROTECTIVE AGENTS COMPRISING AMIFOSTINE AND AMINO ACIDS” (priority 2013, published 2016).

Test [1] has as its system kidneys. The experiment in a line: Kidney protection / 68Ga-DOTATATE uptake in the kidneys, biodistribution studies in mice. The class given is in vivo. The conditions noted are these: Amifostine alone at a dose of 0.63 mg/ml, co-administrated with 68Ga-DOTATATE
The protocol: The first i.v. injection of the composition may be scheduled 30 min prior to 68Ga-DOTATATE administration, while the next two injections may be performed at 15 min and 60 min, respectively, after the radiopeptide administration.
Kidney protection effects of Lysine-Arginine (12.4 mg/ml and 12.5 mg/ml, respectively) and commercially available Clinisol® and Gelofusine co-injected with ^68Ga-DOTATATE (40 uCi) are determined based on biodistribution studies in mice. Lysine-Arginine, Clinisol® and Gelofusine solutions were used as positive controls to determine the efficacies of compositions in accordance with embodiments of the invention.
Mice (n=5/group, male 6-8 weeks old) were given tail intravenous injection (200 ul) of respective solutions, 30 min prior to the administration of ^68Ga-DOTATATE, followed by further injections at 15 min and 1 hr post injection. An example of application schedule is illustrated in FIG. 1.
Mice were then sacrificed by CO2 asphyxiation, and kidneys were collected to determine the amounts of radiation absorbed, which are then compared to the total injected radioactive doses.
Mice (n=5/group, male 6-8 weeks old) were given tail intravenous injection (200 ul) of respective solutions, 30 min prior to the administration ^68Ga-DOTATATE, followed by further injections 15 min and 1 hr post injection, as described in Example 1.

For test [2], the system named is kidneys. The conditions noted are these: patients, 111In-DTPA-octretreotide, cited from earlier work.
Test [3] has as its system kidneys. The conditions noted are these: rats, intravenous co-injection of 400 mg/kg with 111In-DTPA-octretide; cited from earlier work.

Take `NCCCNCCSP(=O)(O)O` [Amifostine]: in the test with kidneys [1], the “kidney protection, Amifostine used alone” value is 12.24% and 12.2%.
For the compound `NCCCC[C@H](N)C(=O)O` [lysine], the kidney protection is on record as 17%±9% with kidneys [2] (25 g of lysine) and 44%±11% in the test on kidneys [2] (infusion of 75 g of lysine).
Consider `NCCCC[C@H](N)C(=O)O` [L-Lysine], for which the kidney protection in the test on kidneys [3] is reported as 40%.
